The source of these data is ChEMBL document CHEMBL3991601, “The target landscape of clinical kinase drugs” (Science, 2017).

The target of assay [1] is T1, Serine/threonine-protein kinase Chk1 (Homo sapiens, UniProt O14757).
T1 sequence (O14757 whole entry): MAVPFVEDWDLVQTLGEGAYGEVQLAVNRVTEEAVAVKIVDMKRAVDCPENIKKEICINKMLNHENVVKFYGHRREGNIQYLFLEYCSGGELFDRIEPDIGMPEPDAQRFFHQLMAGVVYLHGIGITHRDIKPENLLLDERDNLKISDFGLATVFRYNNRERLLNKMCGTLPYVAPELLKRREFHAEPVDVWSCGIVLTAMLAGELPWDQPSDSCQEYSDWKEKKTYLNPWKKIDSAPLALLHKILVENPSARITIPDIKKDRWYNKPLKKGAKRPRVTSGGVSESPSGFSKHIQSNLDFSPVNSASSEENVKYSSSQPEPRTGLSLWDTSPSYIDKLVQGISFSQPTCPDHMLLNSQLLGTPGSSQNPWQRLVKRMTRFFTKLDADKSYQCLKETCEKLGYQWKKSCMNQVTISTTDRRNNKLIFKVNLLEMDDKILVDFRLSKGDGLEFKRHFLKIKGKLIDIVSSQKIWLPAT

For a further assay, the target named is Aurora kinase B (Homo sapiens, UniProt Q96GD4).
The target of another assay is T2, Ephrin type-B receptor 4 (Homo sapiens, UniProt P54760).
T2 sequence (P54760 whole entry): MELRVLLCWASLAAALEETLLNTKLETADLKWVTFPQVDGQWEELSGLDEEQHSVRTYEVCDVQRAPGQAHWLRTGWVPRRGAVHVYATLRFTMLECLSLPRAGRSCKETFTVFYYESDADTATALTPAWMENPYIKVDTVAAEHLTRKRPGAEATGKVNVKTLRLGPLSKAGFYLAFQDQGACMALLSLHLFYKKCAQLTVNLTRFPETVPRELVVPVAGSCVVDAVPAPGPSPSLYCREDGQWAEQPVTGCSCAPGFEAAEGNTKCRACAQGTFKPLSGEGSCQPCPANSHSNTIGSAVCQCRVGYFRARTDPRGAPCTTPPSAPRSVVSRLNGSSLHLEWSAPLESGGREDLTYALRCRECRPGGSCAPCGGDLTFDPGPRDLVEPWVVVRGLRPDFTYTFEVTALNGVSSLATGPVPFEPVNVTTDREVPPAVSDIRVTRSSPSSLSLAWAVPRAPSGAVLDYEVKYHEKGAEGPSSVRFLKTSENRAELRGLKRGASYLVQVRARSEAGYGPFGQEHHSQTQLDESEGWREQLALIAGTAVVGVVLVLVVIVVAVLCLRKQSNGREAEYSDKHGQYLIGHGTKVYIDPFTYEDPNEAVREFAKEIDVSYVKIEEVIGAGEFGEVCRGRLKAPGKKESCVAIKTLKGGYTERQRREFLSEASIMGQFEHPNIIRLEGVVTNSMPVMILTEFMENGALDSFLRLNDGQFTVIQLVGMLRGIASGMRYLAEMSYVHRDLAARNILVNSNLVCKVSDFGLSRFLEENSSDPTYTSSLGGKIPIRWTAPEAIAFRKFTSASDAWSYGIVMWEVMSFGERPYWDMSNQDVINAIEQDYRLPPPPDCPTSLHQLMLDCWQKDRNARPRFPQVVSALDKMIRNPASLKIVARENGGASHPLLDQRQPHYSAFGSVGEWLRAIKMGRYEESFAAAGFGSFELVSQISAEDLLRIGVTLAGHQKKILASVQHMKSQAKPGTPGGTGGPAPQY

The target of assay [2] is 26S proteasome regulatory subunit 6B (Homo sapiens, UniProt P43686).
The target in assay [3] is Macrophage-stimulating protein receptor (Homo sapiens, UniProt Q04912).
The target of assay [4] is BMP-2-inducible protein kinase (Homo sapiens, UniProt Q9NSY1).
In assay [5] the target is T3, Structural maintenance of chromosomes protein 1A (Homo sapiens, UniProt Q14683).
T3 sequence (Q14683 whole entry): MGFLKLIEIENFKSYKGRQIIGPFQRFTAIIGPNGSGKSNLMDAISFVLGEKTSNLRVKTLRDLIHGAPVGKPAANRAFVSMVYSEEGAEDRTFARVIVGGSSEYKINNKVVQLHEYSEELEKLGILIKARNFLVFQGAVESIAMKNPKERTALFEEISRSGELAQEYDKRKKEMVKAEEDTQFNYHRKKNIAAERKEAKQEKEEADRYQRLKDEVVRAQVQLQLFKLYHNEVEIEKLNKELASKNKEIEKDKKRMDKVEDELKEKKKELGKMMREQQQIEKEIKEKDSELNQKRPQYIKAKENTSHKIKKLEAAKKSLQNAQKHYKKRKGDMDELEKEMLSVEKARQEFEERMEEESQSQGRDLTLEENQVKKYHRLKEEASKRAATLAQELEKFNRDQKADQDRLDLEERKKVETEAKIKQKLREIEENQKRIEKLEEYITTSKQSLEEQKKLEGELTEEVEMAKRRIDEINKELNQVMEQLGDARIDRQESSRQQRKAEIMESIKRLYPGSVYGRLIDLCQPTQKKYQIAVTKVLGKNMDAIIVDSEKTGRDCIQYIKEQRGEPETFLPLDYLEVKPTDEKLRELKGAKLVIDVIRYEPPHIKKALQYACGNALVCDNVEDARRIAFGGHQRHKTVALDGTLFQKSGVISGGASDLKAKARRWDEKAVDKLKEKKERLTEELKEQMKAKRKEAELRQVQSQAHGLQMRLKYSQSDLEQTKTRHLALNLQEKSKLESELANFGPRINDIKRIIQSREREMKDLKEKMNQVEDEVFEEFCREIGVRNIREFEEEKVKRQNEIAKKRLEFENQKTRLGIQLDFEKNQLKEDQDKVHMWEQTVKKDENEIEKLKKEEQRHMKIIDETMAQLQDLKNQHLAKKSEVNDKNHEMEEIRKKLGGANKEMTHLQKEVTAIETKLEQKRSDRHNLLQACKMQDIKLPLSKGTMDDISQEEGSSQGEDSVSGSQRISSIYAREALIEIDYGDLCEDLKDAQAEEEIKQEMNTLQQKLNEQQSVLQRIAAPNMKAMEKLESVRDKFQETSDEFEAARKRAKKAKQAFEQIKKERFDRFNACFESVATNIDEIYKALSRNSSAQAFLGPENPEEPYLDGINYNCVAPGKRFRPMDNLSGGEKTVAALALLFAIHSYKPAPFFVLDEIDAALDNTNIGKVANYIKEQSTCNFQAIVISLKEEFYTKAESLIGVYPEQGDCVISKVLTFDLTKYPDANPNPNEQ

In assay [6] the target is Cyclin-dependent kinase 4 (Homo sapiens, UniProt P11802).
Assay [7] addresses AP2-associated protein kinase 1 (Homo sapiens, UniProt Q2M2I8).

The source made the active and inactive calls. Rule as the data show it, for most assays here: actives have a measured Kd and inactives only a lower limit.
Also: in the data inactive means no Kd found up to 30 µM.

Sequence of Aurora kinase B (Q96GD4 whole entry): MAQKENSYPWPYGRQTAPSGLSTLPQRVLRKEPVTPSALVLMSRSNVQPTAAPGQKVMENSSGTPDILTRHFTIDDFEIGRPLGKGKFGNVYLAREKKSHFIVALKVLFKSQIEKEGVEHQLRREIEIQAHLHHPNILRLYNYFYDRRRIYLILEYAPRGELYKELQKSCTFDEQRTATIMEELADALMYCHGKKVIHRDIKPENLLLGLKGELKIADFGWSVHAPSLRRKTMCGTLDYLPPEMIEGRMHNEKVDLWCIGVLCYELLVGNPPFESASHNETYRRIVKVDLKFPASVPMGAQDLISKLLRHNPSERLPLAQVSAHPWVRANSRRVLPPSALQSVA
Sequence of AP2-associated protein kinase 1 (Q2M2I8 whole entry): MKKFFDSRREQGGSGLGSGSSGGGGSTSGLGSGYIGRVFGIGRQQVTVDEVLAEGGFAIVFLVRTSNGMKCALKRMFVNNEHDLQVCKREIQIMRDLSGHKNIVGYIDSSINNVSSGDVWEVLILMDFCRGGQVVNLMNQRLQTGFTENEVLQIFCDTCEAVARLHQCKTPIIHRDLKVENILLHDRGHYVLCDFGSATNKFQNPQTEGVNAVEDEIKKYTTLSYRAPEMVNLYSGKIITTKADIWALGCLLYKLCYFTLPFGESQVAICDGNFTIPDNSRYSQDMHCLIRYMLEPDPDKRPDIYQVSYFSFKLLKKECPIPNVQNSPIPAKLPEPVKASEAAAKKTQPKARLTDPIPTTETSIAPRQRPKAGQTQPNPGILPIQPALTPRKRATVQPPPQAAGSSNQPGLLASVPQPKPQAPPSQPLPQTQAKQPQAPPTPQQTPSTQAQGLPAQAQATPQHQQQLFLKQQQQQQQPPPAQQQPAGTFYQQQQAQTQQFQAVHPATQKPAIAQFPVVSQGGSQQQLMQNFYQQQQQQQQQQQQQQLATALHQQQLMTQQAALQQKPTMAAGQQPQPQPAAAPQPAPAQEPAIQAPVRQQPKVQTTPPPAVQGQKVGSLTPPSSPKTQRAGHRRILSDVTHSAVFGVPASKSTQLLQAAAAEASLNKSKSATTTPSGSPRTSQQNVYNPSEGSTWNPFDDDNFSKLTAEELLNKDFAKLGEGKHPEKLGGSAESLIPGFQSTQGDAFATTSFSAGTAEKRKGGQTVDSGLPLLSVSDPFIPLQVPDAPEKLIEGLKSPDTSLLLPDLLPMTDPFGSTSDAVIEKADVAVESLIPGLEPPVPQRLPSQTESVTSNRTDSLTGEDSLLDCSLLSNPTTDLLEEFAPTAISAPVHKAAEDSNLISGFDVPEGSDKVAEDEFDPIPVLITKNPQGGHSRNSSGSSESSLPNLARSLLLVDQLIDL
Sequence of Cyclin-dependent kinase 4 (P11802 whole entry): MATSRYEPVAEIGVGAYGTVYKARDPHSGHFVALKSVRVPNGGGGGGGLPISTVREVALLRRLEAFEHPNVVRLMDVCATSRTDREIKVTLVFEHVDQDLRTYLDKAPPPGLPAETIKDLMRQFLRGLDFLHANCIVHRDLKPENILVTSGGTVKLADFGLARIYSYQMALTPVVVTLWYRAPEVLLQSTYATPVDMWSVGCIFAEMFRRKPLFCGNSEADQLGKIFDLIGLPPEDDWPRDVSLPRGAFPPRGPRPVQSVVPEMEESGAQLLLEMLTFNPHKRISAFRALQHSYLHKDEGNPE
Sequence of Macrophage-stimulating protein receptor (Q04912 25-304 limits assumed): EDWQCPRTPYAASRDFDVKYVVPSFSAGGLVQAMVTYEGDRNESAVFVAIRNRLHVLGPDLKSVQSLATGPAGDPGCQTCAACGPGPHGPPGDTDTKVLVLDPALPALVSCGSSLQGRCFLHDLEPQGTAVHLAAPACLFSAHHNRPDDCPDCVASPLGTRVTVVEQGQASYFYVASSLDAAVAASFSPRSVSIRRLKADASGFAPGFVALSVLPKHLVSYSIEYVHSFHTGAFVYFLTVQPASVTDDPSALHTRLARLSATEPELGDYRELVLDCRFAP
Sequence of Macrophage-stimulating protein receptor (Q04912 310-1400 limits assumed): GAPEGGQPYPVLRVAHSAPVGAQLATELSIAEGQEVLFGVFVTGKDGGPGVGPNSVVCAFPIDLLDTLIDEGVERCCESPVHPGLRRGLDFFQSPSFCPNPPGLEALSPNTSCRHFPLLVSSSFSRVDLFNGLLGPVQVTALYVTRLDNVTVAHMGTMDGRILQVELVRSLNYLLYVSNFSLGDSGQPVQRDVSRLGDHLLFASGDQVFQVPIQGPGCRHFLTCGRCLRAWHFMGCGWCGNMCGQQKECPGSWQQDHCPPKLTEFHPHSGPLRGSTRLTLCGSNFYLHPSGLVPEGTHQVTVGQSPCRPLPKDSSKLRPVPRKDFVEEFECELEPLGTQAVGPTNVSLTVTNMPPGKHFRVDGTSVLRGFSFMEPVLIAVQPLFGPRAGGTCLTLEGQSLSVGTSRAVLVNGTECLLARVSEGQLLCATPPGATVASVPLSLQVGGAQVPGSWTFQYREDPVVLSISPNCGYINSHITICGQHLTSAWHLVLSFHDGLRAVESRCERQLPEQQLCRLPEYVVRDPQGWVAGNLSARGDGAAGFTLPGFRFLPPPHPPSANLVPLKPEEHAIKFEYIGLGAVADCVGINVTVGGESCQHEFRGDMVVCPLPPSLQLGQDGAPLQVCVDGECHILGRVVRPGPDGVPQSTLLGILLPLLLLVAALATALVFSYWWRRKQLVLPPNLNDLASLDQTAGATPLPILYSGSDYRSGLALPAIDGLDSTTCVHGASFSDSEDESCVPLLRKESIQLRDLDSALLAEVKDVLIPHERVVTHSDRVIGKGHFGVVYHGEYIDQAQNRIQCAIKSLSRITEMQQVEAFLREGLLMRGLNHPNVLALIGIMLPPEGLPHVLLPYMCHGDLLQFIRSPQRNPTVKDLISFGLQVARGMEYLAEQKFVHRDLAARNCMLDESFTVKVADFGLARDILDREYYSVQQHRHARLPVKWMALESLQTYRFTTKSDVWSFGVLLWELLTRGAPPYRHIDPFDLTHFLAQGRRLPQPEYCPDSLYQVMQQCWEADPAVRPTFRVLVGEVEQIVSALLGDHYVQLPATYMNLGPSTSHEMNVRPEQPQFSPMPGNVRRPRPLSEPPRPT
Sequence of 26S proteasome regulatory subunit 6B (P43686 whole entry): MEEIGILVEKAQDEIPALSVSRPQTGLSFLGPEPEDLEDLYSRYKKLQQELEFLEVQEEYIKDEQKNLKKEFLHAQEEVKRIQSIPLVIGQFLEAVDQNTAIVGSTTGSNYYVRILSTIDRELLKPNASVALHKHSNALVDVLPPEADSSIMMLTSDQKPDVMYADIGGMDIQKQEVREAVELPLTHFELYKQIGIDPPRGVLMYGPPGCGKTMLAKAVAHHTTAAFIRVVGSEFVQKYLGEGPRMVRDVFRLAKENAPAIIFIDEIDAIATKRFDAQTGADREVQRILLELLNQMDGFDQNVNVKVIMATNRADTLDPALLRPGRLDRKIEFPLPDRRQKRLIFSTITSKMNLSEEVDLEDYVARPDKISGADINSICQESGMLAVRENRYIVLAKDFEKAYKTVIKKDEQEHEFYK
Sequence of BMP-2-inducible protein kinase (Q9NSY1 whole entry): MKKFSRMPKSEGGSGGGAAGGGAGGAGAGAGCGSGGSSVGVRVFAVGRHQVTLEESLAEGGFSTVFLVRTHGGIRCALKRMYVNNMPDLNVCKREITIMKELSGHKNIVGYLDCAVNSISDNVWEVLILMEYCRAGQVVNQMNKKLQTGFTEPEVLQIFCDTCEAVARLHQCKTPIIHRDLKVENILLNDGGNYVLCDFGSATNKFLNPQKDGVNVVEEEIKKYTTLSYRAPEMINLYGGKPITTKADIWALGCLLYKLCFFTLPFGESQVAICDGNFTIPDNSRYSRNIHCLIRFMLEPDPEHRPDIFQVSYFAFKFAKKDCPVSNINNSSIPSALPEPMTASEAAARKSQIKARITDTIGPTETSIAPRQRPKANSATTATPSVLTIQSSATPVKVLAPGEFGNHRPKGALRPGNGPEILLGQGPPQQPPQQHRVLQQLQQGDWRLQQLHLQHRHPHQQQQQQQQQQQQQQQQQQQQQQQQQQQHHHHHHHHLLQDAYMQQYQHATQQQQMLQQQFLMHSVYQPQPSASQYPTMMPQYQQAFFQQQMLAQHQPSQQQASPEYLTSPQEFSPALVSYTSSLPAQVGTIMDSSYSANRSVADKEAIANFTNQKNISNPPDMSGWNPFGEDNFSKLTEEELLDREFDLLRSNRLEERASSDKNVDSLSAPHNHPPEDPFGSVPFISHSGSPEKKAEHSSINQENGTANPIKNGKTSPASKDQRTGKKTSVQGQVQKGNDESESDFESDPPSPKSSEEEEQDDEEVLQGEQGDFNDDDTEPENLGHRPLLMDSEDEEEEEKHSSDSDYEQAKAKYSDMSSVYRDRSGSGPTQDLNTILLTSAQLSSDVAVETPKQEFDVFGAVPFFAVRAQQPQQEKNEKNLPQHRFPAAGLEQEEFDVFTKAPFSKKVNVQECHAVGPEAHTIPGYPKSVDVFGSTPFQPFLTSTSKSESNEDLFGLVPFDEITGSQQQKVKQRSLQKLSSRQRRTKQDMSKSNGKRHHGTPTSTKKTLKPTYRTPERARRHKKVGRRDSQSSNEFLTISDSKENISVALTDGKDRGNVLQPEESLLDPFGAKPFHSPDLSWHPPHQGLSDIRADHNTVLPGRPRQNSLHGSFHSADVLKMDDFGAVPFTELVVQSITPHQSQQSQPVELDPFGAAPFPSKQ

Regarding `O=C(Cc1ccc(-c2ccc(OCCN3CCOCC3)cc2)cn1)NCc1ccccc1` [TIRBANIBULIN], the Kd (in [1]; on Aurora kinase B; on Ephrin type-B receptor 4; in [2]; in [3]; in assay [4]) was > 30 µM (inactive) in each case. The Kd in assay [5], in assay [6] and in assay [7] was > 30 µM (inactive) each time.

For the molecule `O=C1NC(=O)[C@@H](c2cn3c4c(cccc24)CCC3)[C@@H]1c1c[nH]c2ccccc12` [TIVANTINIB], the Kd (in [1]; on Aurora kinase B; at Ephrin type-B receptor 4; in assay [2]; in assay [3]; in [4]) was > 30 µM (inactive) throughout. For the same molecule, the Kd in assay [5], in assay [6] and in [7] was > 30 µM (inactive) throughout.

As for `C[C@@H](NC(=O)c1ncnc(N)c1Cl)c1ncc(C(=O)Nc2cc(C(F)(F)F)c(Cl)cn2)s1` [TOVORAFENIB], the Kd in [1] is > 30 µM (inactive); on Aurora kinase B it was > 30 µM (inactive); at Ephrin type-B receptor 4, 9.43 µM (active); in [2], > 30 µM (inactive); in assay [3], > 30 µM (inactive); in [4] it was > 30 µM (inactive). Moreover, the Kd in assay [5], in assay [6] and in assay [7] was > 30 µM (inactive) each time.

With `Cc1cc(Nc2ncnc3ccc(NC4=NC(C)(C)CO4)cc23)ccc1Oc1ccn2ncnc2c1` [TUCATINIB], the Kd (in assay [1]; on Aurora kinase B; on Ephrin type-B receptor 4; in [2]; in assay [3]; in assay [4]) was > 30 µM (inactive) in each case. For the same molecule, the Kd in [5], in assay [6] and in assay [7] was > 30 µM (inactive) throughout.

`CC(C)c1cc(CNc2nc(Nc3cc(C4CC4)[nH]n3)cc(N3CCN(C)CC3)n2)on1` [XL-228]: the Kd in assay [1] was > 30 µM (inactive); on Aurora kinase B it was 0.004 µM (active); at Ephrin type-B receptor 4 it was 0.292 µM (active); in assay [2], > 30 µM (inactive); in [3], 2.37 µM (active); in [4], 0.014 µM (active). Further, the Kd is > 30 µM (inactive) in [5], > 30 µM (inactive) in assay [6] and 0.138 µM (active) in assay [7].

Consider `C[C@@H](N)c1ccc(C(=O)Nc2ccnc3[nH]ccc23)cc1` [Y-39983], for which the Kd is > 30 µM (inactive) in assay [1]; > 30 µM (inactive) at Aurora kinase B; > 30 µM (inactive) at Ephrin type-B receptor 4; > 30 µM (inactive) in assay [2]; > 30 µM (inactive) in assay [3]; 0.179 µM (active) in [4]. The values for the Kd in [5], in [6] and in assay [7] were > 30 µM (inactive), > 30 µM (inactive) and 0.122 µM (active), respectively.

Take `CN1C/C=C/CCOc2cccc(c2)-c2ccnc(n2)Nc2cccc(c2)C1` [ZOTIRACICLIB]: the Kd (in assay [1]; at Aurora kinase B; at Ephrin type-B receptor 4; in assay [2]; in assay [3]; in [4]) was > 30 µM (inactive) throughout. For the same molecule, the Kd in [5], in [6] and in assay [7] was > 30 µM (inactive) each time.
